The values that follow come from patent US8026222B2, “Methods of use of glycomimetics with replacements for hexoses and n-acetyl hexosamines” (GlycoMimetics, Inc., priority 2007, dated 2011).

This test concerns human umbilical vein endothelial cells (HUVECS). Put plainly: neutrophil rolling on endothelial cell monolayers under flow conditions (rolling index). Type of test: cell-based. The settings on record: HUVEC monolayers incubated in glycated serum protein for 4 hours, perfused with human neutrophils (FIG. 18, FIG. 19).

Method: Monolayers of human umbilical vein endothelial cells (HUVECS) were incubated in glycated serum proteins (FIG. 18, glycated albumin, Gly-HSA or FIG. 19, glycated hemoglobin, Gly-Hb) for 4 hours. Monolayers were then inserted into a flow chamber and the chamber was perfused with human neutrophils (10^6 cell/ml) at a flow rate corresponding to a wall shear stress of 0.9 dynes/cm^2. Digital images were acquired and analyzed to determine the rolling index (RI) which is a measure of the degree of neutrophil rolling on the endothelial cell monolayer.

“glycated hemoglobin: glycated serum protein used to stimulate endothelial cells”: the “increase in neutrophil rolling (rolling index)” value is listed as roughly 2.8 fold.
